According to ChEMBL document CHEMBL4350991, “Design, synthesis, and biological evaluation of rutacecarpine derivatives as multitarget-directed ligands for the treatment of Alzheimer's disease” (Eur J Med Chem, 2019):

Assays:
Acetylcholinesterase = Acetylcholinesterase (Electrophorus electricus, UniProt O42275); type: ADME
Description: Inhibition of electric eel AChE using acetylthiocholine iodide as substrate preincubated for 30 mins followed by substrate addition and measured after 30 mins by Ellman's method

Cholinesterase = Cholinesterase (Equus caballus, UniProt P81908)
Description: Inhibition of equine serum BuChE using S-butyrylthiocholine iodide as substrate preincubated with enzyme for 30 mins followed by substrate addition and measured after 30 mins by Ellman's method

PC-12 [1] = assay: cells; type: functional; conditions: Rattus norvegicus
PC-12 [2] = assay: cells; type: functional; conditions: Rattus norvegicus; remark: listed apart in the source
PC-12 [3] = assay: cells; type: functional; conditions: Rattus norvegicus; remark: listed apart in the source
PC-12 [4] = assay: cells; type: functional; conditions: Rattus norvegicus; remark: listed apart in the source
PC-12 [5] = assay: cells; type: functional; conditions: Rattus norvegicus; remark: listed apart in the source
[6] = n-Octanol-phosphate buffer partition co-efficient, log P of compound at pH 7.4 incubated for 48 hrs by UV spectrophotometry-based shake-flask method; type: physicochemical
PC-12 [7] = assay: Neuroprotective activity against H2O2 induced cytotoxicity in rat PC12 cells assessed as increase in cell viability pretreated for 3 hrs followed by H2O2 challenge measured after 24 hrs by MTT assay; type: functional, cell-based

Chain of Acetylcholinesterase (O42275 whole entry): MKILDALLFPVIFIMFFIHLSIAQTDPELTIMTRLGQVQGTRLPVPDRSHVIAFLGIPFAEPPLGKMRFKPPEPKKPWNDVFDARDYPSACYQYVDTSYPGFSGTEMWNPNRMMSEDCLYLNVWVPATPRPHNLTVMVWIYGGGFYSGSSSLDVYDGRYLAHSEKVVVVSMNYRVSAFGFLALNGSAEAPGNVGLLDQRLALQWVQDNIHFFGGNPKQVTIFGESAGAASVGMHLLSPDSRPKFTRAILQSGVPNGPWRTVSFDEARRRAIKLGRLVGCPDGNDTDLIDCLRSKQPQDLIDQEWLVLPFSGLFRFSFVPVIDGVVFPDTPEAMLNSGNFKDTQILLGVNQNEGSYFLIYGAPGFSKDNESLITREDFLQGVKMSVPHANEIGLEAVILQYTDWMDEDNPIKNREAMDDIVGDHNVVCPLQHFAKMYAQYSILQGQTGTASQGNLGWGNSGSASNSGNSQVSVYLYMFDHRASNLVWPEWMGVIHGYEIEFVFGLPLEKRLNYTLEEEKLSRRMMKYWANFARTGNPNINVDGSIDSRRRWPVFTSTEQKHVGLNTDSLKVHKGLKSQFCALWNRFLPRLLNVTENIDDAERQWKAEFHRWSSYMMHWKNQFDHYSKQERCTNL
Chain of Cholinesterase (P81908 whole entry): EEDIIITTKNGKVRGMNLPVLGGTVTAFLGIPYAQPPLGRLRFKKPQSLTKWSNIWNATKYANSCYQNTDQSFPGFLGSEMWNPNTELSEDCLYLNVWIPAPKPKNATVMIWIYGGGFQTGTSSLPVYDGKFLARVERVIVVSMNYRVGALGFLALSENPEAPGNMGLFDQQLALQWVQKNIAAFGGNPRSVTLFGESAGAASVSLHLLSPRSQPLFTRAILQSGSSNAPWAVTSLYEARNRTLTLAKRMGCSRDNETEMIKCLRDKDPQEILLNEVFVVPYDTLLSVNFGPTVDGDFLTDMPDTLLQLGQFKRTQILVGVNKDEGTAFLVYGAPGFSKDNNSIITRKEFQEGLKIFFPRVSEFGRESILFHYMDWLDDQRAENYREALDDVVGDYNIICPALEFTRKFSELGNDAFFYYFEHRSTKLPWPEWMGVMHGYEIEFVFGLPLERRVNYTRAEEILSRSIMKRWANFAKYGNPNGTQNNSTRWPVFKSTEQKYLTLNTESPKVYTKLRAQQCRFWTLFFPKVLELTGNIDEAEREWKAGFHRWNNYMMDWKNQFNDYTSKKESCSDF

Compound: CC(C)(C)c1ccc(S(=O)(=O)Nc2ccc3nc4n(c(=O)c3c2)CCc2c-4[nH]c3ccccc23)cc1
- IC50 (Acetylcholinesterase): > 100 µM
- IC50 (Cholinesterase): 13 µM
- viability at 10 µM (PC-12 [1]): 41.2%
- viability at 5 µM (PC-12 [2]): 39.9%
- viability at 1 µM (PC-12 [3]): 37.6%
- viability at 30 µM (PC-12 [4]): 41.7%
- viability at 50 µM (PC-12 [5]): 43.6%

Compound: O=c1c2cc(NS(=O)(=O)c3cccs3)ccc2nc2n1CCc1c-2[nH]c2ccccc12
- IC50 (Acetylcholinesterase): > 100 µM
- IC50 (Cholinesterase): > 100 µM
- viability at 10 µM (PC-12 [1]): 40.8%
- viability at 5 µM (PC-12 [2]): 39.2%
- viability at 1 µM (PC-12 [3]): 37.7%
- viability at 30 µM (PC-12 [4]): 41.9%
- viability at 50 µM (PC-12 [5]): 42.4%

Compound: O=c1c2cc(NS(=O)(=O)c3ccc(Br)cc3)ccc2nc2n1CCc1c-2[nH]c2ccccc12
- IC50 (Acetylcholinesterase): 40.4 µM
- IC50 (Cholinesterase): 8.94 µM
- viability at 10 µM (PC-12 [1]): 44.1%
- viability at 5 µM (PC-12 [2]): 41.8%
- viability at 1 µM (PC-12 [3]): 39.9%
- viability at 30 µM (PC-12 [4]): 45.4%
- viability at 50 µM (PC-12 [5]): 47.6%

Compound: O=c1c2cc(NS(=O)(=O)c3ccc(F)cc3)ccc2nc2n1CCc1c-2[nH]c2ccccc12
- IC50 (Acetylcholinesterase): > 100 µM
- IC50 (Cholinesterase): 7.57 µM
- logD at 48 h [6]: 2.25
- viability at 10 µM (PC-12 [1]): 45.5%
- viability at 5 µM (PC-12 [2]): 44.7%
- viability at 1 µM (PC-12 [3]): 41.9%
- viability at 30 µM (PC-12 [4]): 46.6%
- viability at 50 µM (PC-12 [5]): 51.8%

Compound: O=c1c2cc(NS(=O)(=O)c3cc(Cl)cc(Cl)c3)ccc2nc2n1CCc1c-2[nH]c2ccccc12
- Activity (PC-12 [7]): Dose-dependent effect
- IC50 (Acetylcholinesterase): 84.4 µM
- IC50 (Cholinesterase): 7.94 µM
- logD at 48 h [6]: 3.21
- viability at 10 µM (PC-12 [1]): 47.9%
- viability at 5 µM (PC-12 [2]): 45.3%
- viability at 1 µM (PC-12 [3]): 42.4%
- viability at 30 µM (PC-12 [4]): 59.6%
- viability at 50 µM (PC-12 [5]): 69.5%

Compound: O=c1c2cc(NS(=O)(=O)c3ccc(F)c(Cl)c3)ccc2nc2n1CCc1c-2[nH]c2ccccc12
- Activity (PC-12 [7]): Dose-dependent effect
- IC50 (Acetylcholinesterase): 85.6 µM
- IC50 (Cholinesterase): 4.63 µM
- logD at 48 h [6]: 2.81
- viability at 10 µM (PC-12 [1]): 58.1%
- viability at 5 µM (PC-12 [2]): 50.8%
- viability at 1 µM (PC-12 [3]): 48.1%
- viability at 30 µM (PC-12 [4]): 59.4%
- viability at 50 µM (PC-12 [5]): 61.1%

Compound: COC(=O)c1sccc1S(=O)(=O)Nc1ccc2nc3n(c(=O)c2c1)CCc1c-3[nH]c2ccccc12
- IC50 (Acetylcholinesterase): > 100 µM
- IC50 (Cholinesterase): > 100 µM
- viability at 10 µM (PC-12 [1]): 39.9%
- viability at 5 µM (PC-12 [2]): 42.5%
- viability at 1 µM (PC-12 [3]): 35.9%
- viability at 30 µM (PC-12 [4]): 39.8%
- viability at 50 µM (PC-12 [5]): 38%

Compound: O=c1c2cc(NS(=O)(=O)c3ccc([N+](=O)[O-])cc3)ccc2nc2n1CCc1c-2[nH]c2ccccc12
- IC50 (Acetylcholinesterase): > 100 µM
- IC50 (Cholinesterase): 16.5 µM
- viability at 10 µM (PC-12 [1]): 37.1%
- viability at 5 µM (PC-12 [2]): 33%
- viability at 1 µM (PC-12 [3]): 32.4%
- viability at 30 µM (PC-12 [4]): 33.5%
- viability at 50 µM (PC-12 [5]): 31%

Compound: COc1ccc(S(=O)(=O)Nc2ccc3nc4n(c(=O)c3c2)CCc2c-4[nH]c3ccccc23)c(OC)c1
- IC50 (Acetylcholinesterase): 77 µM
- IC50 (Cholinesterase): 7.58 µM
- viability at 10 µM (PC-12 [1]): 52%
- viability at 5 µM (PC-12 [2]): 51.1%
- viability at 1 µM (PC-12 [3]): 49.6%
- viability at 30 µM (PC-12 [4]): 56%
- viability at 50 µM (PC-12 [5]): 51.1%

Compound: CC(=O)c1ccc(S(=O)(=O)Nc2ccc3nc4n(c(=O)c3c2)CCc2c-4[nH]c3ccccc23)cc1
- Activity (PC-12 [7]): Dose-dependent effect
- IC50 (Acetylcholinesterase): > 100 µM
- IC50 (Cholinesterase): 25.8 µM
- viability at 10 µM (PC-12 [1]): 54.4%
- viability at 5 µM (PC-12 [2]): 48%
- viability at 1 µM (PC-12 [3]): 46.7%
- viability at 30 µM (PC-12 [4]): 57.7%
- viability at 50 µM (PC-12 [5]): 59.8%

Compound: O=c1c2cc(NS(=O)(=O)c3cccc(C(F)(F)F)c3)ccc2nc2n1CCc1c-2[nH]c2ccccc12
- IC50 (Acetylcholinesterase): > 100 µM
- IC50 (Cholinesterase): 3.82 µM
- logD at 48 h [6]: 3.01
- viability at 10 µM (PC-12 [1]): 53.2%
- viability at 5 µM (PC-12 [2]): 50.7%
- viability at 1 µM (PC-12 [3]): 49.1%
- viability at 30 µM (PC-12 [4]): 53.5%
- viability at 50 µM (PC-12 [5]): 55.9%

Compound: COc1ccc(S(=O)(=O)Nc2ccc3nc4n(c(=O)c3c2)CCc2c-4[nH]c3ccccc23)cc1
- IC50 (Acetylcholinesterase): > 100 µM
- IC50 (Cholinesterase): 8.01 µM
- viability at 10 µM (PC-12 [1]): 42.3%
- viability at 5 µM (PC-12 [2]): 51.8%
- viability at 1 µM (PC-12 [3]): 39.3%
- viability at 30 µM (PC-12 [4]): 43.2%
- viability at 50 µM (PC-12 [5]): 49%

Compound: O=c1c2cc(NS(=O)(=O)c3ccc(Cl)s3)ccc2nc2n1CCc1c-2[nH]c2ccccc12
- IC50 (Acetylcholinesterase): > 100 µM
- IC50 (Cholinesterase): 76.9 µM
- viability at 10 µM (PC-12 [1]): 55.1%
- viability at 5 µM (PC-12 [2]): 48%
- viability at 1 µM (PC-12 [3]): 43.5%
- viability at 30 µM (PC-12 [4]): 56%
- viability at 50 µM (PC-12 [5]): 54.5%

Compound: O=c1c2cc(NS(=O)(=O)c3ccc(C(F)(F)F)cc3)ccc2nc2n1CCc1c-2[nH]c2ccccc12
- Activity (PC-12 [7]): Dose-dependent effect
- IC50 (Acetylcholinesterase): > 100 µM
- IC50 (Cholinesterase): 8.28 µM
- logD at 48 h [6]: 3.01
- viability at 10 µM (PC-12 [1]): 56.1%
- viability at 5 µM (PC-12 [2]): 54.9%
- viability at 1 µM (PC-12 [3]): 43.6%
- viability at 30 µM (PC-12 [4]): 56.5%
- viability at 50 µM (PC-12 [5]): 60.1%

Compound: O=c1c2cc(NS(=O)(=O)c3c(Cl)cccc3Cl)ccc2nc2n1CCc1c-2[nH]c2ccccc12
- IC50 (Acetylcholinesterase): 100 µM
- IC50 (Cholinesterase): 13.7 µM
- viability at 10 µM (PC-12 [1]): 42.9%
- viability at 5 µM (PC-12 [2]): 42.1%
- viability at 1 µM (PC-12 [3]): 40.7%
- viability at 30 µM (PC-12 [4]): 45.4%
- viability at 50 µM (PC-12 [5]): 48.3%

Compound: O=c1c(O)c(-c2ccc(O)c(O)c2)oc2cc(O)cc(O)c12 [QUERCETIN]
- viability at 10 µM (PC-12 [1]): 57.9%
- viability at 5 µM (PC-12 [2]): 56.3%
- viability at 1 µM (PC-12 [3]): 48.9%
- viability at 30 µM (PC-12 [4]): 60.6%
- viability at 50 µM (PC-12 [5]): 62.7%

Compound: COc1ccc(S(=O)(=O)Nc2ccc3nc4n(c(=O)c3c2)CCc2c-4[nH]c3ccccc23)cc1OC
- IC50 (Acetylcholinesterase): 51.2 µM
- IC50 (Cholinesterase): 10.9 µM
- viability at 10 µM (PC-12 [1]): 45.2%
- viability at 5 µM (PC-12 [2]): 44%
- viability at 1 µM (PC-12 [3]): 40.4%
- viability at 30 µM (PC-12 [4]): 47.7%
- viability at 50 µM (PC-12 [5]): 51%

Compound: O=c1c2cc(NS(=O)(=O)c3ccc(OC(F)(F)F)cc3)ccc2nc2n1CCc1c-2[nH]c2ccccc12
- Activity (PC-12 [7]): Dose-dependent effect
- IC50 (Acetylcholinesterase): 34.6 µM
- IC50 (Cholinesterase): 3.95 µM
- logD at 48 h [6]: 3.62
- viability at 10 µM (PC-12 [1]): 60.1%
- viability at 5 µM (PC-12 [2]): 55.9%
- viability at 1 µM (PC-12 [3]): 51.6%
- viability at 30 µM (PC-12 [4]): 61.8%
- viability at 50 µM (PC-12 [5]): 63.8%

Compound: COc1cc2c(cc1OC)C(=O)C(CC1CCN(Cc3ccccc3)CC1)C2 (stereo unspecified) [DONEPEZIL]
- viability at 10 µM (PC-12 [1]): 65.5%
- viability at 5 µM (PC-12 [2]): 57.1%
- viability at 1 µM (PC-12 [3]): 49.2%
- viability at 30 µM (PC-12 [4]): 68.9%
- viability at 50 µM (PC-12 [5]): 76.7%

Compound: O=c1c2cc(NS(=O)(=O)c3cccc([N+](=O)[O-])c3)ccc2nc2n1CCc1c-2[nH]c2ccccc12
- IC50 (Acetylcholinesterase): > 100 µM
- IC50 (Cholinesterase): 23.3 µM
- viability at 10 µM (PC-12 [1]): 40.9%
- viability at 5 µM (PC-12 [2]): 38.7%
- viability at 1 µM (PC-12 [3]): 27%
- viability at 30 µM (PC-12 [4]): 34%
- viability at 50 µM (PC-12 [5]): 25.6%

Compound: O=c1c2cc(NS(=O)(=O)c3ccc(Br)s3)ccc2nc2n1CCc1c-2[nH]c2ccccc12
- Activity (PC-12 [7]): Dose-dependent effect
- IC50 (Acetylcholinesterase): 83.4 µM
- IC50 (Cholinesterase): 60.3 µM
- logD at 48 h [6]: 2.91
- viability at 10 µM (PC-12 [1]): 55.1%
- viability at 5 µM (PC-12 [2]): 52.3%
- viability at 1 µM (PC-12 [3]): 52%
- viability at 30 µM (PC-12 [4]): 56.2%
- viability at 50 µM (PC-12 [5]): 58.2%
